Measured values: PMC12785453, “Oral Fluid Concentrations and Pharmacological Effects of Clephedrone and Methylone in Humans” (International Journal of Molecular Sciences, 2025)
Where two headings read alike, the source gives them in different places.

What was measured:
healthy volunteers = assay: Physiological effects (SBP, DBP, HR, T), naturalistic observational clephedrone study; assay type: in vivo, humans
Text: The study evaluating the acute effects of clephedrone was designed as a non-controlled, prospective, observational, and naturalistic study. The procedures and evaluations included in this study have been described in previous studies evaluating other synthetic cathinones (mephedrone, methylone, alpha-PVP, NEP, HEXEN), phenethylamines (2C-B and 2C-E), or synthetic cannabinoids (JWH-122, JWH-210, UR-144).
This study consisted of one experimental session in which participants (N = 8; 6 women, 2 men) selected their oral dose of clephedrone based on their drug use experience and preferences. According to their dose selection, 3 women and 1 man ingested 100 mg of clephedrone, while the remaining 3 women and 1 man opted for a higher dose of 150 mg. […] Participants were recruited by word of mouth by the harm reduction organization Energy Control in Barcelona (Associació Benestar i Desenvolupament, ABD).
Participants of the naturalistic clephedrone study were summoned at 15:00 h at the private club where sessions were carried out. The club remained closed to the public until the end of the session, approximately at 21:00 h. As a naturalistic study, participants were left free to talk, read, play games, or listen to music in the time between study evaluations. To avoid possible influences between participants, they were asked to refrain from talking about the effects of the self-administered substance. The experimental sessions of the controlled pilot trial were carried out at the Clinical Research Unit (UPIC) of the Germans Trias i Pujol hospital, where participants were summoned at 7:45 a.m. after fasting overnight and remained there for approximately 11 h.
In the naturalistic clephedrone study, non-invasive systolic blood pressure (SBP), diastolic blood pressure (DBP), and heart rate (HR) were assessed, while subjects remained seated with an automatic Omron monitor (Omron, Healthcare, Kyoto, Japan) at baseline, 0.50, 1, 1.5, 2, 3, 4 and 5 h (h) after self-administration. Forehead cutaneous temperature was determined at the same time points using a cutaneous infrared thermometer.
For statistical analysis, values of physiological (SBP, DBP, HR, and T) and subjective effects (VAS, ARCI, and VESSPA-SSE) were baseline–adjusted. Maximum effects (Emax) and the time needed to reach maximum effects (Tmax) were determined, and the area under the curve up to 5 h (AUC0–5h) for clephedrone and up to 6 h (AUC0–6h) for methylone was calculated using the trapezoidal rule. Emax and AUC values are presented as mean ± standard deviation, whereas Tmax is presented in median (range).
To find possible significant changes through the time course compared to baseline, a Dunnett multiple comparison test was carried out to compare each time point with baseline in both drug conditions. For clephedrone the comparisons were 0–0.5 h, 0–1 h, 0–1.5 h, 0–2 h, 0–3 h, 0–4 h and 0–5 h, and for methylone this analysis included 0–0.25 h, 0–0.5 h, 0–0.75 h, 0–1 h, 0–1.5 h, 0–2 h, 0–3 h, 0–4 h and 0–6 h. Given their different study designs, no comparative analysis between the time courses of both synthetic cathinones was conducted.

[1] = system: MDMA-like discriminative stimulus effects; parameters: method as in PMID 30986635; conditions: cited from earlier work
humans = conditions: cited from earlier work
[2] = cited from earlier work
[3] = Oral fluid concentrations of methylone (LC-MS/MS); assay type: in vivo, humans; conditions: 150 or 200 mg oral
Protocol: Methylone pharmacology was evaluated in a study designed as a randomized, double-blind, placebo-controlled, crossover clinical trial. Four pilot studies were conducted administering methylone at oral doses of 50 (n = 3), 100 (n = 6), 150 (n = 5), and 200 mg (n = 7). Participants attended 3 experimental sessions separated by a one-week wash-out period and received two doses of methylone (one dose per experimental session) compared to placebo, except in the last pilot study in which participants received one dose of methylone, compared to MDMA and placebo. However, in this manuscript, only the results corresponding to the highest methylone doses (n = 12; 150 and 200 mg; mean dose = 179.2 mg) are presented, to enable comparison with clephedrone self-administration. Participants were recruited by word of mouth in the volunteer database of the clinical pharmacology unit.
In both studies, oral fluid samples for the quantification of clephedrone and methylone concentration were collected using Salivette standard tubes. For clephedrone, oral fluid samples were collected at baseline, 0.50, 1, 1.5, 2, 3, 4, and 5 h, whereas for methylone, they were collected at baseline, 0.25, 0.50, 0.75, 1, 1.5, 2, 3, 4, 6, 8, and 10 h. After collection, all samples were centrifuged and stored frozen at −20 °C until analysis. Clephedrone oral fluid concentrations were determined using a previously validated gas chromatography coupled to mass spectrometry systems (GC-MS/MS). Methylone was quantified via liquid chromatography–tandem mass spectrometry (LC–MS/MS).
For oral fluid concentrations of clephedrone and methylone, only a descriptive analysis was performed to obtain the main pharmacokinetics data, including the maximum concentration (Cmax), the time required to reach maximum concentrations (Tmax), and AUC up to 5 h (AUC0–5h) for clephedrone and up to 6 h (AUC0–6h) for methylone. These parameters were calculated using the Pharmacokinetic Functions for Microsoft Excel (Joel Usansky, Atul Desai, and Diane Tang-Liu, Department of Pharmacokinetics and Drug Metabolism, Allergan, Irvine, CA, USA). […]

[4] = 100 or 150 mg oral, n=8, listed as clephedrone
[5] = AUC0–5h, 100 or 150 mg oral, n=8

SMILES: CNC(C)C(=O)c1ccc(Cl)cc1 (centres unmarked) [Clephedrone, 4-chloromethcathinone]
- Onset of cardiovascular effects after self-administration (healthy volunteers; 100 or 150 mg oral): 2 h
- Tmax of maximum effects on SBP, DBP and HR (healthy volunteers; 100 or 150 mg oral): 2.5 to 3.0 h
- DBP Emax (healthy volunteers; 100 or 150 mg oral, n=8): 13.63 ± 11.74 mmHg
- HR Emax (healthy volunteers; 100 or 150 mg oral, n=8): 17.19 ± 25.17 bpm
- SBP Emax (healthy volunteers; 100 or 150 mg oral, n=8): 16.81 ± 13.11 mmHg
- DBP Emax (healthy volunteers; [4]): 13.6 mmHg
- HR Emax (healthy volunteers; [4]): 17.19 bpm
- HR Tmax (healthy volunteers; [4]): 3 h
- SBP Emax (healthy volunteers; [4]): 16.81 mmHg
- DBP AUC0-5/6 h (healthy volunteers; [5]): 32.64 ± 22.06 mmHg·h
- HR AUC0-5/6 h (healthy volunteers; [5]): 37.20 ± 40.72 bpm·h
- SBP AUC0-5/6 h (healthy volunteers; [5]): 41.77 ± 13.86 mmHg·h
- T AUC0-5/6 h (healthy volunteers; AUC0–5h, forehead cutaneous temperature, 100 or 150 mg oral, n=8): 1.25 ± 1.05 °C·h
- Tolerability, serious adverse events (healthy volunteers; all administered doses (100 or 150 mg oral)): well tolerated
- T Emax (healthy volunteers; forehead cutaneous temperature, 100 or 150 mg oral, n=8): 0.63 ± 0.35 °C
- Substitution for MDMA in drug discrimination ([1]; rodents): fully substituted for MDMA

SMILES: CNC(C)C(=O)c1ccc2c(c1)OCO2 (centres unmarked) [Methylone, 3,4-methylenedioxy-N-methylcathinone]
- Persistence of heart rate increases (humans; naturalistic and controlled environments): 8 to 10 h
- Time of peak effects following self-administration (humans; naturalistic conditions): 2 h
- Substitution for MDMA in drug discrimination ([1]; rats): > 80%
- Tmax in plasma [2]: 2 h
- Oral fluid concentration at 6 h, times lower than Cmax ([3]; 6 h): 11 times
- Cmax ([3]; human, oral fluid, n=12): 17200 ng/mL
- AUC(0-t) ([3]; human, oral fluid, n=12, read-out: Oral fluid AUC0–6 h): 44700 ng·h/mL
